In paper PMC10584170, “Machine learning-based phenotypic imaging to characterise the targetable biology of Plasmodium falciparum male gametocytes for the development of transmission-blocking antimalarials” (PLOS Pathogens, 2023):

Experiments:
[1] = system: P. falciparum male gametocytes; assay: P. falciparum Dual Gamete Formation Assay (PfDGFA), male readout (exflagellation); type: cell-based, Plasmodium falciparum NF54; conditions: for Average inhibition male (%): average of replicates; for % inhibition male (individual replicates) R1: replicate R1; for % inhibition male (individual replicates) R3: replicate R3; for % inhibition male (individual replicates) R4: replicate R4; for Activity: hit = >50% inhibition in male or female readout in at least 3 replicates, 0 = no class assigned
Procedure, shortened: (§1)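 Day-14 NF54 gametocytes were incubated with compound for 24 h at 37°C under 1% O2/3% CO2/96% N2. Gametogenesis was triggered with ookinete medium (0.1 μM xanthurenic acid) plus Cy3-anti-Pfs25, and exflagellation was imaged by brightfield after cooling to 4°C then 28°C. Females were imaged by Pfs25 fluorescence 24 h later at 28°C.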

[2] = system: P. falciparum female gametocytes; assay: P. falciparum Dual Gamete Formation Assay (PfDGFA), female readout (Pfs25-positive female gametes); type: cell-based, Plasmodium falciparum NF54; conditions: for Average inhibition female (%): average of replicates; for % inhibition female (individual replicates) R1: replicate R1; for % inhibition female (individual replicates) R3: replicate R3; for % inhibition female (individual replicates) R4: replicate R4
Procedure, shortened: as §1

[3] = PfDGFA at 2µM, 24h preincubation with gametocytes
[4] = number of replicates with >50% inhibition in the male readout, 2µM
[5] = number of replicates with >50% inhibition in the female readout, 2µM
[6] = 2µM, 24h preincubation with gametocytes prior to induction of gametogenesis
[7] = 2µM, 24h preincubation, number of replicates with >50% inhibition in the male readout
[8] = 2µM, 24h preincubation, number of replicates with >50% inhibition in the female readout
[9] = 2µM, 24h preincubation, hits selected on >50% inhibition in the male readout across replicates
[10] = PfDGFA at 2µM, 24h preincubation
[11] = 2µM, 24h preincubation, hits selected on >50% inhibition in the female readout across replicates
[12] = PfDGFA at 2µM, 24h preincubation with gametocytes prior to induction of gametogenesis

Structure (SMILES) | Average inhibition male (%) [1, 6] | % inhibition male (individual replicates) R1 [1, 6] | % inhibition male (individual replicates) R4 [1, 6] | Average inhibition female (%) [2, 6] | % inhibition female (individual replicates) R1 [2, 6] | % inhibition female (individual replicates) R3 [2, 6] | % inhibition female (individual replicates) R4 [2, 6] | HitlevelM [1, 9] | Activity [1, 10] | HitlevelF [2, 11] | % inhibition male (individual replicates) R3 [1, 6] | also measured
COc1ccc(CNC2CCN(C)CC2)cc1-c1ccc(S(=O)(=O)NCc2ccccc2)c(C)c1.O=C(O)C(F)(F)F [TCMDC-132480] | – | – | – | – | – | – | – | – | – | – | – | Average inhibition male (%) [1, 3]: 78.0%; % inhibition male (individual replicates) R1 [1, 3]: 73.4%; % inhibition male (individual replicates) R3 [1, 3]: 67.7%; % inhibition male (individual replicates) R4 [1, 3]: 91.6%; HitlevelM [1, 4]: 4; Average inhibition female (%) [2, 3]: 36.3%; % inhibition female (individual replicates) R1 [2, 3]: 30.7%; % inhibition female (individual replicates) R3 [2, 3]: 36.3%; % inhibition female (individual replicates) R4 [2, 3]: 41.6%; HitlevelF [2, 5]: 0
CCS(=O)(=O)c1ccc(-c2cnc3[nH]cc(-c4ccc(N)cc4)c3c2)cc1 [TCMDC-132582] | 35.5% | 70.7% | -32.7% | 24.2% | 25.6% | 29.8% | 22.2% | – | – | – | – | HitlevelM [1, 7]: 2; HitlevelF [2, 8]: 0
Cc1cccc2nc(-c3ccc(-c4cccc(CNC5CCN(C)CC5)c4)s3)[nH]c12.O=C(O)C(F)(F)F [TCMDC-132736] | 63.8% | 48.5% | 67.2% | 18.0% | 17.1% | 23.2% | 22.3% | 2 | 0 | 0 | – | –
CN(CCN)Cc1ccc(-c2ccc(-c3nc4cc(C(F)(F)F)ccc4[nH]3)s2)cc1.O=C(O)C(F)(F)F [TCMDC-132821] | -7.8% | -14.8% | -7.6% | 8.7% | 4.7% | 20.4% | 7.1% | 0 | 0 | 0 | – | –
CNCCNCc1ccc(-c2ccc(-c3nc4cc(F)ccc4[nH]3)s2)cc1.O=C(O)C(F)(F)F [TCMDC-132829] | – | – | – | – | – | – | – | – | – | – | – | Average inhibition male (%) [1, 3]: 66.0%; % inhibition male (individual replicates) R1 [1, 3]: 54.3%; % inhibition male (individual replicates) R4 [1, 3]: 78.8%; HitlevelM [1, 4]: 3; Average inhibition female (%) [2, 3]: 12.3%; % inhibition female (individual replicates) R1 [2, 3]: 11.4%; % inhibition female (individual replicates) R3 [2, 3]: 10.0%; % inhibition female (individual replicates) R4 [2, 3]: 9.0%; HitlevelF [2, 5]: 0
CNCCNCc1cccc(-c2ccc(-c3nc4cc(C(F)(F)F)ccc4[nH]3)s2)c1.O=C(O)C(F)(F)F [TCMDC-132830] | 36.6% | 35.0% | 60.2% | 26.5% | 19.8% | 8.2% | 49.8% | – | – | – | 16.5% | HitlevelM [1, 7]: 1; HitlevelF [2, 8]: 0
CNCCNCc1ccc(-c2ccc(-c3nc4cc(C(F)(F)F)ccc4[nH]3)cc2)cc1.O=C(O)C(F)(F)F [TCMDC-132833] | 23.6% | 9.5% | 50.2% | 17.0% | 21.1% | 25.6% | 19.1% | 1 | 0 | 0 | 12.3% | –
CNCCNCc1cccc(-c2ccc(-c3nc4cc(C(F)(F)F)ccc4[nH]3)cc2)c1.O=C(O)C(F)(F)F [TCMDC-132834] | 47.7% | 40.3% | 68.9% | 13.1% | 23.3% | 8.2% | 10.1% | 2 | 0 | 0 | 3.4% | –
CNCCNCc1ccc(-c2cccc(-c3nc4cc(F)ccc4[nH]3)c2)cc1.O=C(O)C(F)(F)F [TCMDC-132836] | – | – | – | – | – | – | – | – | – | – | – | % inhibition male (individual replicates) R1 [1, 12]: -5.6%; % inhibition male (individual replicates) R4 [1, 12]: -19.2%; Average inhibition male (%) [1, 10]: -13.9%; % inhibition female (individual replicates) R1 [2, 12]: -0.65%; % inhibition female (individual replicates) R3 [2, 12]: 8.4%; % inhibition female (individual replicates) R4 [2, 12]: 2.6%; Average inhibition female (%) [2, 10]: 2.2%
O=C(O)C(F)(F)F.c1cc(CNCCN2CCNCC2)cc(-c2cccc(-c3nc4ccccc4[nH]3)c2)c1 [TCMDC-132859] | 12.0% | 10.9% | 24.9% | 17.2% | 18.5% | -13.9% | 47.2% | 0 | 0 | 0 | -9.7% | –
Fc1ccc2[nH]c(-c3cccc(-c4cccc(CNCCN5CCNCC5)c4)c3)nc2c1.O=C(O)C(F)(F)F [TCMDC-132860] | – | – | – | – | – | – | – | – | – | – | – | Average inhibition male (%) [1, 3]: 74.7%; % inhibition male (individual replicates) R1 [1, 3]: 80.2%; % inhibition male (individual replicates) R3 [1, 3]: 48.0%; % inhibition male (individual replicates) R4 [1, 3]: 89.6%; HitlevelM [1, 4]: 3; Average inhibition female (%) [2, 3]: -9.5%; % inhibition female (individual replicates) R1 [2, 3]: 8.6%; % inhibition female (individual replicates) R3 [2, 3]: -31.9%; % inhibition female (individual replicates) R4 [2, 3]: -13.7%; HitlevelF [2, 5]: 0
O=C(O)C(F)(F)F.c1cc(CNCCN2CCNCC2)cc(-c2ccc(-c3nc4ccccc4[nH]3)cc2)c1 [TCMDC-132861] | – | – | – | – | – | – | – | – | – | – | – | % inhibition male (individual replicates) R1 [1, 12]: -18.7%; % inhibition male (individual replicates) R4 [1, 12]: -15.3%; Average inhibition male (%) [1, 10]: -11.2%; % inhibition female (individual replicates) R1 [2, 12]: -3.1%; % inhibition female (individual replicates) R3 [2, 12]: -9.9%; % inhibition female (individual replicates) R4 [2, 12]: 9.1%; Average inhibition female (%) [2, 10]: 1.2%
FC(F)(F)c1ccc2[nH]c(-c3ccc(-c4ccc(CNCCN5CCNCC5)cc4)s3)nc2c1.O=C(O)C(F)(F)F [TCMDC-132862] | 44.8% | 46.6% | 89.1% | 20.7% | 21.1% | 13.2% | 20.9% | – | – | – | 56.6% | HitlevelM [1, 7]: 2; HitlevelF [2, 8]: 0
Fc1ccc2[nH]c(-c3cccc(-c4ccc(CNCCN5CCNCC5)cc4)c3)nc2c1.O=C(O)C(F)(F)F [TCMDC-132863] | 43.0% | 23.0% | 70.2% | 14.3% | 16.6% | -21.5% | 42.6% | 2 | 0 | 0 | 12.3% | –
Cc1cccc2nc(-c3cccc(-c4cccc(CNCCN5CCNCC5)c4)c3)[nH]c12.O=C(O)C(F)(F)F [TCMDC-132873] | 29.1% | 24.4% | 46.2% | 9.7% | 14.0% | 9.9% | 0.33% | 0 | 0 | 0 | 9.9% | –
CN(c1ncc(-c2cccc(CNCc3ccccc3O)c2)cn1)C1CCCCC1 [TCMDC-133137] | – | – | – | – | – | – | – | – | – | – | – | % inhibition male (individual replicates) R1 [1, 12]: -18.7%; % inhibition male (individual replicates) R4 [1, 12]: -25.6%; Average inhibition male (%) [1, 10]: -17.4%; % inhibition female (individual replicates) R1 [2, 12]: 2.5%; % inhibition female (individual replicates) R3 [2, 12]: -2.1%; % inhibition female (individual replicates) R4 [2, 12]: 17.4%; Average inhibition female (%) [2, 10]: 2.8%
Cl.c1cc(CNC2Cc3ccccc3C2)cc(-c2cnc(N3CCNCC3)nc2)c1 [TCMDC-133140] | 40.3% | 37.9% | 54.9% | 27.8% | 25.6% | 8.0% | 43.1% | – | – | – | 14.1% | HitlevelM [1, 7]: 2; HitlevelF [2, 8]: 0
